The results in this text go back to patent US4207330A, “Method for treating hyperglycemia in mammals using arylamino benzoic acids” (The Dow Chemical Company, priority 1979, dated 1980).

Read-outs that look alike come from different tables or passages of the source.

The subject of the test is serum glucose. Briefly: Hypoglycemic activity in alanine-induced mice (percent lowering of serum glucose; ED50). In kind it is in vivo, male Swiss-Webster mice. The conditions noted are these: for inhibition in vivo at 60 mg/kg / ED50: Mus musculus, ip, 1 h; for inhibition in vivo at 60 mg/kg: 60 mg/kg intraperitoneal, 15 min before 10 mmol/kg L-alanine i.p., serum glucose 60 min after compound, 100% = lowering from alanine-induced level to fasted control level, read-out: % Lowering Blood Sugar; for ED50: read-out: ED50 (amount required to obtain a 50% reduction in serum glucose as compared to the control animals). How it is done: Alanine is the most glucogenic of the amino acids and also stimulates gluconeogensis in normal animals. Animals suffering from diabetes show an exaggerated hyperglycemic response to a protein or amino acid meal, therefore the hyperglycemic state induced by alanine closely parallels the response of a diabetic mammal.
Fifteen minutes later the same mice were injected intrapertioneally with 10 m moles/kg body weight of L-alanine. Sixty minutes after injection of the active compound, the animals were sacrificed and their sera were analyzed for glucose. The control consisted of both fasted mice and mice injected with alanine. The results are expressed as percent lowering of serum glucose from the alanine induced hyperglycemic level to the fasted control glucose level, i.e. lowering to the fasting glucose level is 100% lowering.
The effective dose (ED50) of several of the subject compounds were determined.
*effective dose represents the amount of the active ingredient required t
obtain a 50% reduction in serum glucose as compared to the control

Setting [1] is: 50% reduction in serum glucose vs control animals.

The ED50 is the midpoint of the dose-response relation.

For the molecule `O=C(O)c1ccc(NCc2cc(Cl)c(Cl)s2)cc1` [Example 14, 4-(((4,5-dichloro-2-thienyl)methyl)amino)benzoic acid], the inhibition in vivo at 60 mg/kg was 83%.

`O=C(O)c1ccc(NCc2ccc(Cl)cc2)cc1` [Example 3, 4-(((4-chlorophenyl)methyl)amino)benzoic acid]: the inhibition in vivo at 60 mg/kg was 111%. Besides, the ED50 under setting [1] was 11 mg/kg.

As for `CCOC(=O)c1ccc(NCc2cccs2)cc1` [Example 7, 4-((2-thienylmethyl)amino)benzoic acid ethyl ester], the inhibition in vivo at 60 mg/kg came to 78%.

`O=C(O)c1ccc(NCc2ccc(Cl)cc2)cc1.[Na]` [Example 12, 4-(((4-chlorophenyl)methyl)amino)benzoic acid sodium]: the median effective dose (ED50) was 6 mg/kg.

With `O=C(O)c1ccc(Nc2ccccc2)cc1` [Example 1, p-anilinobenzoic acid], the inhibition in vivo at 60 mg/kg is 88%.

As to `O=C(O)c1ccc(NCCCc2ccccc2)cc1` [Example 10, 4-((3-phenylpropyl)amino)benzoic acid], the inhibition in vivo at 60 mg/kg is 99%.

With `O=C(O)c1ccc(NCc2cccs2)cc1` [Example 8, 4-((2-thienylmethyl)amino)benzoic acid], the inhibition in vivo at 60 mg/kg turned out to be 51%.

Take `O=C(O)c1ccc(NCc2ccc(Br)s2)cc1` [Example 15, 4-(((5-bromo-2-thienyl)methyl)amino)benzoic acid]: the inhibition in vivo at 60 mg/kg worked out at 210%. In addition, the ED50 under setting [1] came out at 4.6 mg/kg. Further, where the note is “mice, dosages as low as 7.5 mg per kg of body weight”, the “hypoglycemic activity at low dosage (in words)” value is given as “significant hypoglycemic activity”. Further, the “hypoglycemic activity (in words)” value (mice, compounds tested) is “highest activity as a hypoglycemic agent of the compounds tested”.

With `O=C(O)c1ccc(NCc2ccc(C(F)(F)F)cc2)cc1` [Example 11, 4-(((4-(trifluoromethyl)phenyl)methyl)amino)benzoic], the inhibition in vivo at 60 mg/kg was 106%.

`O=C(O)c1ccc(NCc2cccc(Cl)c2)cc1` [Example 9, 4-(((3-chlorophenyl)methyl)amino)benzoic acid]: the inhibition in vivo at 60 mg/kg came out at 64%.

As to `CC(C)c1ccc(CNc2ccc(C(=O)O)cc2)cc1` [Example 2, 4-(((4-(1-methylethyl)phenyl)methyl)amino)benzoic acid], the inhibition in vivo at 60 mg/kg amounted to 78%.

Turning to `O=C(O)c1ccc(NCc2ccc(F)cc2)cc1` [Example 6, 4-(((4-fluorophenyl)methyl)amino)benzoic acid], the inhibition in vivo at 60 mg/kg came out at 110%.

For `CCc1ccc(CNc2ccc(C(=O)O)cc2)cc1` [Example 5, 4-(((4-ethylphenyl)methyl)amino)benzoic acid], the inhibition in vivo at 60 mg/kg stood at 96%. For the same molecule, the ED50 under setting [1] was 15 mg/kg.

For the molecule `O=C(O)c1ccc(NCc2cccc(F)c2)cc1` [Example 13, 4-(((3-fluorophenyl)methyl)amino)benzoic acid], the inhibition in vivo at 60 mg/kg amounted to 52%.

For `Cc1ccc(CNc2ccc(C(=O)O)cc2)cc1` [Example 4, 4-(((4-methylphenyl)methyl)amino)benzoic acid], the inhibition in vivo at 60 mg/kg was found to be 144%. The 50% effective dose (ED50) under setting [1] was 15 mg/kg.
